Measured values taken from paper PMC5004831, “Molecular and biochemical characterization of carbonic anhydrases of Paracoccidioides” (Genetics and Molecular Biology, 2016).

Key:
[1] = target: T1, rCA1 (CA1), beta-class carbonic anhydrase of Paracoccidioides (Paracoccidioides lutzii, UniProt C1H4M3); assay: CO2 hydration, electrometric (Wilbur-Anderson); type: biochemical; settings: read-out: CA1- Residual Activity (%)
T1 construct: gene PAAG_05716; complete cDNA, 282 residues, GST fusion (pGEX-4T-3) from E. coli, GST cut by thrombin; 33 kDa
T1 sequence (C1H4M3 1-282): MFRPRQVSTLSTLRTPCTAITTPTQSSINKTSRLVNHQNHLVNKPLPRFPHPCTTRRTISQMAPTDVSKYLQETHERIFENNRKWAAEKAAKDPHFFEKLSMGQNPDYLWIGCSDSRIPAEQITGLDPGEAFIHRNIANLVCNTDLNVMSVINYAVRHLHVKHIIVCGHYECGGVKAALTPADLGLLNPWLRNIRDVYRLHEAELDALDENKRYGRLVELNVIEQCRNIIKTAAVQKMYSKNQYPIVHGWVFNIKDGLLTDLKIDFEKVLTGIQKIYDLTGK
From the text: CO2 hydration, electrometric (Wilbur-Anderson) on rCA1 (CA1), beta-class carbonic anhydrase of Paracoccidioides

[2] = target: T2, rCA4 (CA4), alpha-class carbonic anhydrase of Paracoccidioides (Paracoccidioides brasiliensis, UniProt B1PIT4); assay: CO2 hydration, electrometric (Wilbur-Anderson); type: biochemical; settings: read-out: CA4- Residual Activity (%)
T2 construct: 32 kDa
T2 sequence (B1PIT4 1-301): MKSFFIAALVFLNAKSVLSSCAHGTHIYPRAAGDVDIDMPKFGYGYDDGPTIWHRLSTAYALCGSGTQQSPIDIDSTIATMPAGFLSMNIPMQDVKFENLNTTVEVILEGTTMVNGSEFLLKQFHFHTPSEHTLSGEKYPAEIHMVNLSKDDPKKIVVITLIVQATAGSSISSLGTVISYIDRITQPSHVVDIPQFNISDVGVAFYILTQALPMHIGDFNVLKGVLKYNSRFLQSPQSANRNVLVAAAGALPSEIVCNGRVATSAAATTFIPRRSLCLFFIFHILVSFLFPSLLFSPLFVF
From the text: CO2 hydration, electrometric (Wilbur-Anderson) on rCA4 (CA4), alpha-class carbonic anhydrase of Paracoccidioides

Structure (SMILES)	remaining activity at 25 µM [1] [%]	remaining activity at 25 µM [2] [%]
N=C(N)NCCC[C@H](N)C(=O)O [L-Arg]	130	132
N[C@@H](Cc1cnc[nH]1)C(=O)O [L-His]	142	152
N[C@@H](Cc1c[nH]c2ccccc12)C(=O)O [L-Trp]	162	158
NCCCC[C@H](N)C(=O)O [L-Lys]	138	140
